Test system: 889142-216-R-J1-PDC complex spheroid viability
Assay: Anticancer human tumor 889142-216-R-J1-PDC patient-derived bladder carcinoma cell line growth inhibition [POLQ]
Conditions: for IC50: curve of first compound; for viability, T/C: stronger effect = lower value
How it was run: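 Patient-derived tumour cells were co-cultured with HUVEC and mesenchymal stem cells as multicellular spheroids at 37 °C. They were treated with POLQ inhibitors (novobiocin, ART-558, RP6685) alone or combined with other agents. Top concentrations were at or near clinical Cmax (otherwise 10 microM; SN-38 at 1 microM), decreasing in half-log steps.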

[1] = second compound 0.0316 µM, first compound 0.0316 µM
[2] = second compound 0.0316 µM, first compound 0.1 µM
[3] = second compound 0.0316 µM, first compound 0.316 µM
[4] = second compound 0.0316 µM, first compound 1 µM
[5] = second compound 0.0316 µM, first compound 3.16 µM
[6] = second compound 0.0316 µM, first compound 10 µM
[7] = second compound 0.1 µM, first compound 0.0316 µM
[8] = second compound 0.1 µM, first compound 0.1 µM
[9] = second compound 0.1 µM, first compound 0.316 µM
[10] = second compound 0.1 µM, first compound 1 µM
[11] = second compound 0.1 µM, first compound 3.16 µM
[12] = second compound 0.1 µM, first compound 10 µM
[13] = second compound 0.316 µM, first compound 0.0316 µM
[14] = second compound 0.316 µM, first compound 0.1 µM
[15] = second compound 0.316 µM, first compound 0.316 µM
[16] = second compound 0.316 µM, first compound 1 µM
[17] = second compound 0.316 µM, first compound 3.16 µM
[18] = second compound 0.316 µM, first compound 10 µM
[19] = second compound 1 µM, first compound 0.0316 µM
[20] = second compound 1 µM, first compound 0.1 µM
[21] = second compound 1 µM, first compound 0.316 µM
[22] = second compound 1 µM, first compound 1 µM
[23] = second compound 1 µM, first compound 3.16 µM
[24] = second compound 1 µM, first compound 10 µM
[25] = second compound 3.16 µM, first compound 0.0316 µM
[26] = second compound 3.16 µM, first compound 0.1 µM
[27] = second compound 3.16 µM, first compound 0.316 µM
[28] = second compound 3.16 µM, first compound 1 µM
[29] = second compound 3.16 µM, first compound 3.16 µM
[30] = second compound 3.16 µM, first compound 10 µM
[31] = second compound 10 µM, first compound 0.0316 µM
[32] = second compound 10 µM, first compound 0.1 µM
[33] = second compound 10 µM, first compound 0.316 µM
[34] = second compound 10 µM, first compound 1 µM
[35] = second compound 10 µM, first compound 3.16 µM
[36] = second compound 10 µM, first compound 10 µM
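Further: spheroids exposed to compounds for seven days.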
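Wherever viability, T/C is given: 100% = DMSO vehicle control viability.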

SMILES: C#Cc1c(F)ccc2cc(O)cc(-c3ncc4c(N5CC6CCC(C5)N6)nc(OCC56CCCN5CC(F)C6)nc4c3F)c12 (centres undefined) + Nc1ccc(C#CCN(C(=O)Cc2ncc(C(F)(F)F)cc2C(F)(F)F)c2ccc(F)cc2)nn1
- IC50 (second compound 0.0316 µM): > 10 µM
- IC50 (second compound 0.1 µM): 7.63 µM
- IC50 (second compound 0.316 µM): > 10 µM
- IC50 (second compound 1 µM): > 10 µM
- IC50 (second compound 3.16 µM): > 10 µM
- IC50 (second compound 10 µM): 7.61 µM
- viability, T/C [1]: 101%
- viability, T/C [2]: 102%
- viability, T/C [3]: 75%
- viability, T/C [4]: 74.6%
- viability, T/C [5]: 84.8%
- viability, T/C [6]: 43.9%
- viability, T/C [7]: 103%
- viability, T/C [8]: 119%
- viability, T/C [9]: 85.3%
- viability, T/C [10]: 79%
- viability, T/C [11]: 86.6%
- viability, T/C [12]: 38.9%
- viability, T/C [13]: 115%
- viability, T/C [14]: 99.4%
- viability, T/C [15]: 73.5%
- viability, T/C [16]: 116%
- viability, T/C [17]: 69.8%
- viability, T/C [18]: 49.7%
- viability, T/C [19]: 115%
- viability, T/C [20]: 102%
- viability, T/C [21]: 95.8%
- viability, T/C [22]: 76.7%
- viability, T/C [23]: 65.3%
- viability, T/C [24]: 52.5%
- viability, T/C [25]: 94%
- viability, T/C [26]: 98.1%
- viability, T/C [27]: 90.3%
- viability, T/C [28]: 131%
- viability, T/C [29]: 70.3%
- viability, T/C [30]: 63.8%
- viability, T/C [31]: 120%
- viability, T/C [32]: 81.6%
- viability, T/C [33]: 108%
- viability, T/C [34]: 75.5%
- viability, T/C [35]: 90.5%
- viability, T/C [36]: 38.8%

SMILES: COc1cc2cc(C(=O)CCC(=O)O)sc2cc1OC + Nc1ccc(C#CCN(C(=O)Cc2ncc(C(F)(F)F)cc2C(F)(F)F)c2ccc(F)cc2)nn1
- IC50 (second compound 0.0316 µM): > 10 µM
- IC50 (second compound 0.1 µM): > 10 µM
- IC50 (second compound 0.316 µM): > 10 µM
- IC50 (second compound 1 µM): > 10 µM
- IC50 (second compound 3.16 µM): > 10 µM
- IC50 (second compound 10 µM): > 10 µM
- viability, T/C [1]: 88.3%
- viability, T/C [2]: 108%
- viability, T/C [3]: 96.6%
- viability, T/C [4]: 92.9%
- viability, T/C [5]: 108%
- viability, T/C [6]: 61.9%
- viability, T/C [7]: 108%
- viability, T/C [8]: 89%
- viability, T/C [9]: 82.7%
- viability, T/C [10]: 115%
- viability, T/C [11]: 81.9%
- viability, T/C [12]: 79.2%
- viability, T/C [13]: 91.7%
- viability, T/C [14]: 86.5%
- viability, T/C [15]: 94%
- viability, T/C [16]: 117%
- viability, T/C [17]: 78.2%
- viability, T/C [18]: 78.5%
- viability, T/C [19]: 82.5%
- viability, T/C [20]: 96.3%
- viability, T/C [21]: 93%
- viability, T/C [22]: 89.5%
- viability, T/C [23]: 93.3%
- viability, T/C [24]: 68.2%
- viability, T/C [25]: 108%
- viability, T/C [26]: 83.6%
- viability, T/C [27]: 91.1%
- viability, T/C [28]: 71.7%
- viability, T/C [29]: 87.2%
- viability, T/C [30]: 76.8%
- viability, T/C [31]: 90.5%
- viability, T/C [32]: 79%
- viability, T/C [33]: 93.7%
- viability, T/C [34]: 101%
- viability, T/C [35]: 100%
- viability, T/C [36]: 89.4%
